# Results: paper PMC4513294, “L-Asparaginase from Streptomyces griseus NIOT-VKMA29: optimization of process variables using factorial designs and molecular characterization of L-asparaginase gene” (Scientific Reports, 2015)
# Molecular target: T1, L-asparaginase (ansA) (Streptomyces griseus, UniProt Q54237)
# T1 construct: gene orf4; full-length ORF (987 bp, 328 residues, 33721 Da) in pQE30, expressed in E. coli M15(pREP4); unpurified expressed cells; 34 kDa band on SDS-PAGE
# T1 sequence (Q54237 1-328): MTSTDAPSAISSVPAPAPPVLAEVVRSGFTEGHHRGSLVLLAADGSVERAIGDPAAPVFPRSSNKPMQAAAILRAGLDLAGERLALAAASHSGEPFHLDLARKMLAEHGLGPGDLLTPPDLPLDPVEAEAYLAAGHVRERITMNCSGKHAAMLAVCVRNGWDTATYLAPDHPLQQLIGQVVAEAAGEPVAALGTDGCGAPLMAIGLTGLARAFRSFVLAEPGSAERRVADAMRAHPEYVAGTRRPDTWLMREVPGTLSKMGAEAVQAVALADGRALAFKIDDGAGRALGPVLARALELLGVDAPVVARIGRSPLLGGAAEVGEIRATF
# Assay: ammonia release, Nesslerization
# Type: cell-based
# Conditions: recombinant E. coli M15 expressed cells compared with control cells; host background activity present
smiles,measurement,value
NC(=O)C[C@H](N)C(=O)O [L-asparagine],"ammonia release, Nesslerization",The expression of asparaginase biosynthetic gene was confirmed by Nesslerization assay
